# Results taken from patent publication US9322034B2, “Compositions and methods for detecting and modulating cell death by a translation regulated gene expression system” (Wayne State University, priority 2007, dated 2016).
# Where a SMILES comes first, the peptide text is derived from it. The star is where a group is joined. Cbz = O=C(OCc1ccccc1)*
# What was measured:
# [1] = test system: HEK293 cells; assay: Trypan blue staining of HEK293 cells treated with toxic agents; format: cell-based, human; conditions: 50 micromolar, within 24 hr
# [2] = test system: HEK293 cell pools expressing the fLUC-TRplp-EYFP, fLUC-TRdm-EYFP, pcuLf-TRplp-EYFP or pcuLf-TRdm-EYFP expression cassettes; assay: Cytotoxicity assay by Western blot, bicistronic TR cassettes; format: cell-based, human; conditions: toxic doses
# [3] = test system: HEK293 or HT1080 cells transduced with rAAV TRplp-EYFP / TRdm-EYFP; assay: TR-EYFP translation after rAAV transduction; format: cell-based, human; conditions: 25 μM, 24 hr
# Procedure: This example is to show delivery of the TRplp-EYFP and TRdm-EYFP cassettes to HEK293 and HT1080 cells using rAAV transduction. HEK293 or HT1080 cells are plated on flame sterilized glass slides and grown until 60-70% confluent (1-2 days), washed with L-DMEM (DMEM containing 2% fetal bovine serum), and infected with rAAV for 2 hr. The medium is replaced with DMEM, 10% FBS and the cells are incubated for 24 hours. Infected cells are treated with DMEM, 10% FBS supplemented with toxic levels of MG132 (25 μM) for 24 hr prior to direct microscopic or Western analysis as described above.
# [4] = test system: HEK293 TRplp-TKsr39 cells; assay: Pro-drug induced cell death, Trypan blue cell viability assay; format: cell-based, human
# Procedure: (§1) In this example, HEK293, HEK CMV-EYFP, and HEK TRplp-TKsr39 cells are treated with various amounts of the pro-drug ganciclovir and tested for cell death after 4 days incubation using the Trypan blue staining assay. Cells are plated into 6-well trays, grown to 70-80% confluence, and treated with DMEM, 10% FBS supplemented with ganciclovir (0, 10 nM, 100 nM, 1 μM, 5 μM or 10 μM) for 4 days. Viable cell counts are performed at 3 days and 4 days post-incubation (FIG. 13).
# [5] = Pro-drug induced cell death, Trypan blue cell viability assay, control cells; format: cell-based; conditions: human, HEK293 or HEK CMV-EYFP cells (control cells); any concentration (10 nM to 10 μM), 3 or 4 days; read-out: cells remaining Trypan blue viable
# Procedure: as §1
# [6] = target: TKsr39 protein (Human herpesvirus 1, UniProt Q9QNF7, A168F/F161L/I160F/L159I/L169M); conditions: TKsr39 versus wildtype TK protein; cited from earlier work
# TKsr39 protein, sequence (Q9QNF7 whole entry A168F/F161L/I160F/L159I/L169M, looked up): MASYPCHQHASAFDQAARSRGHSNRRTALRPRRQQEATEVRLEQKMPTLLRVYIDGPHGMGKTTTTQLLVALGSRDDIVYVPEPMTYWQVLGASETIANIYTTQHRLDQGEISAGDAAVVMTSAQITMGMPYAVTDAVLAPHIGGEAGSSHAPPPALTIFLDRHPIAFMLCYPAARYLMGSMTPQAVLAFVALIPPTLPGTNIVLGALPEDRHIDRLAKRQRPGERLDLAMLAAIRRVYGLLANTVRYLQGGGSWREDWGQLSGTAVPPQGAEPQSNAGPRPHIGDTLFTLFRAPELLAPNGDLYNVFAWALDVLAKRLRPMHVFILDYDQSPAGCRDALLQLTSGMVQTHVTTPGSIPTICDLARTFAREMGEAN
SMILES,cell death in HEK293 cells as determined by Trypan blue staining [1],"EYFP translation in cell pools expressing the bicistronic TR cassettes (Western blot, FIG. 4) [2]",translation of EYFP in rAAV transduced cells compared to uninfected control cells [3],"cell viability compared to untreated cells ([4]; 10 nM, 3 days)","cell viability compared to untreated cells ([4]; 100 nM, 3 days)","viability at 10 µM ([4]; Homo sapiens, HEK293, 72 h, 3 days) [%]","viability at 0.01 µM ([4]; Homo sapiens, HEK293, 96 h, 10 nM, 4 days) [%]","viability at 10 µM ([4]; Homo sapiens, HEK293, 96 h, 4 days) [%]",viability [5] [%],"prodrug binding of TKsr39 protein, higher than the wildtype protein [6] [fold]"
CC(C)C[C@@H](C=O)NC(=O)[C@H](CC(C)C)NC(=O)[C@H](CC(C)C)NC(=O)OCc1ccccc1 [MG132] (Cbz-Leu-Leu-Leu-aldehyde),complete cell death,induce EYFP translation,exhibit selective translation of the fluorescent EYFP protein,–,–,–,–,–,–,–
Nc1nc(O)c2ncn(COC(CO)CO)c2n1 [ganciclovir],–,–,–,does not exhibit any decrease in cell viability,slight decrease,86,99.7,33.7,98 to 100,83
